Source: article PMC8390638, “Termitomenins F and G, Two New Lignan Glucosides from Terminalia chebula var. tomentella (Kurz) C. B. Clarke” (Natural Products and Bioprospecting, 2021)

Each molecule was assayed against α-glucosidase (assay: α-glucosidase inhibitor screening assay (PNPG substrate, absorbance at 405 nm)). Details: means ± SD (n = 3), phosphate buffer pH 6.8, 37 °C, 1 h, Reed and Muench method, read-out: IC50 (one-half maximal inhibitory concentration to α-glucosidase).
Format: biochemical
Experimental: The α-glucosidase inhibitor screening assay was conducted as reported previously and slightly modified. […] 4-Nitrophenol-α-D-glucopyranoside (PNPG) was used as an enzyme inhibitor screening model. α-glucosidase solution (0.025 U·mL^−1), PNPG (0.1 M), phosphate buffer (pH 6.8) and test samples (50 μM) were incubated in 96-well plates at 37 °C for 1 h. A microplate reader was recorded by the absorbance at 405 nm. No enzyme as the blank readings were subtracted from each well and compared to the control. In this assay, all reactions were performed in triplicate. The α-glucosidase inhibitory activity was presented as inhibition ratio. The formula to calculate the inhibition rate is as follows: inhibition rate (%) = (1 ‒ OD experimental 405 nm/OD […] 405 nm) × 100%, and IC50 values were calculated according to the Reed and Muench method.

IC50 [nM] | Structure (SMILES)
2280 ± 70 | O=C(OC[C@H]1O[C@@H](OC(=O)c2cc(O)c(O)c(O)c2)[C@H](O)[C@@H](OC(=O)c2cc(O)c(O)c(O)c2)[C@@H]1O)c1cc(O)c(O)c(O)c1 [Compound 11, 1,3,6-tri-O-galloyl-β-D-glucopyranose]
100 ± 10 | O=C(OC[C@H]1O[C@@H](OC(=O)c2cc(O)c(O)c(O)c2)[C@H](OC(=O)c2cc(O)c(O)c(O)c2)[C@@H](OC(=O)c2cc(O)c(O)c(O)c2)[C@@H]1OC(=O)c1cc(O)c(O)c(O)c1)c1cc(O)c(O)c(O)c1 [Compound 12, 1,2,3,4,6-penta-O-galloyl-β-D-glucopyranose]
3120 ± 230 | O=C(O[C@@H]1O[C@@H]2COC(=O)c3cc(O)c(O)c(O)c3-c3c(cc(O)c(O)c3O)C(=O)O[C@H]([C@H]1O)[C@@H]2O)c1cc(O)c(O)c(O)c1 [Compound 13, corilagin]

Structure (SMILES) | IC50 [nM]
O=C1O[C@H]2[C@@H]3OC(=O)c4cc(O)c(O)c(O)c4-c4c(O)c(O)c5oc(=O)c6c(c(O)c(O)c7oc(=O)c4c5c76)-c4c(cc(O)c(O)c4O)C(=O)OC[C@H]3OC(O)[C@@H]2OC(=O)c2cc(O)c(O)c(O)c2-c2c1cc(O)c(O)c2O (mixture of isomers) [Compound 10, punicalagin] | 270 ± 10
